ChEMBL document CHEMBL1201862, “PubChem BioAssay data set” (2004)
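Five compound concentrations were applied to cells in 96-well plates for 48 hours; endpoints were derived by simple linear interpolation of the resulting dose-response curve. At the GI50, growth is halved.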 Calls of active or inactive are those of the source. No stated cut-off is given here; in the data, active = GI50 up to about 1.1 µM and inactive = higher.

Columns and labels:
Experiment in all cases: NCI tumour cell line growth inhibition, 48 h
UACC-257 = test system: UACC-257
NCI-H226 = test system: NCI-H226
HCC 2998 = test system: HCC 2998
DU-145 = test system: DU-145
A498 = test system: A498
RPMI-8226 = test system: RPMI-8226
HOP-62 = test system: HOP-62
SW-620 = test system: SW-620
IGROV-1 = test system: IGROV-1
CAKI-1 = test system: CAKI-1
M14 = test system: M14
SK-MEL-2 = test system: SK-MEL-2
LOX IMVI = test system: LOX IMVI
SF-539 = test system: SF-539
NCI-H522 = test system: NCI-H522
HCT-116 = test system: HCT-116
KM12 = test system: KM12
PC-3 = test system: PC-3
T47D = test system: T47D

| Structure (SMILES) | GI50 (UACC-257) | GI50 (NCI-H226) | GI50 (HCC 2998) | GI50 (DU-145) | GI50 (A498) | GI50 (RPMI-8226) | GI50 (HOP-62) | GI50 (SW-620) | GI50 (IGROV-1) | GI50 (CAKI-1) | GI50 (M14) | GI50 (SK-MEL-2) | GI50 (LOX IMVI) | GI50 (SF-539) | GI50 (NCI-H522) | GI50 (HCT-116) | GI50 (KM12) | GI50 (PC-3) | GI50 (T47D) |
| --- | --- | --- | --- | --- | --- | --- | --- | --- | --- | --- | --- | --- | --- | --- | --- | --- | --- | --- | --- |
| CC(/C=N\NC(=S)N1CCCCC1)=N/NC(=S)N1CCCCC1 | 2.94 µM (inactive) | 1.09 µM (active) | 1.63 µM (inactive) | 0.547 µM (active) | 1.35 µM (inactive) | 2.32 µM (inactive) | 0.991 µM (active) | 0.935 µM (active) | 1.04 µM (active) | 1.33 µM (inactive) | 1.28 µM (inactive) | 1.28 µM (inactive) | 0.82 µM (active) | 3.65 µM (inactive) | 1.54 µM (inactive) | 0.627 µM (active) | 1.09 µM (active) | 0.957 µM (active) |  |
| O=C(O)CCCc1ccc2c(c1)CC1(C2)Cc2ccc(CCCC(=O)O)cc2C1 | > 100 µM (inactive) | > 100 µM (inactive) | > 100 µM (inactive) |  | > 100 µM (inactive) | > 100 µM (inactive) | > 100 µM (inactive) |  | > 100 µM (inactive) |  | > 100 µM (inactive) | > 100 µM (inactive) | > 100 µM (inactive) | > 100 µM (inactive) | > 100 µM (inactive) | > 100 µM (inactive) | > 100 µM (inactive) | > 100 µM (inactive) | > 100 µM (inactive) |
| O=C(C(=C(I)I)c1ccccc1)c1ccccc1 | 37.4 µM (inactive) |  | > 10 µM (inactive) |  | 13.1 µM (inactive) | 19.5 µM (inactive) | 19.2 µM (inactive) | 28.8 µM (inactive) | 8.63 µM (inactive) | 38.4 µM (inactive) | 25 µM (inactive) | 16.1 µM (inactive) |  | 24.8 µM (inactive) |  | 17.1 µM (inactive) |  | 28.4 µM (inactive) |  |
| CC1(C)CC(c2c[nH]c3ccccc23)=CC2=Nc3ccccc3C21O (stereo not given) | > 100 µM (inactive) | 15.2 µM (inactive) |  |  | > 100 µM (inactive) | > 100 µM (inactive) | > 100 µM (inactive) | 52.1 µM (inactive) | > 100 µM (inactive) | 48.8 µM (inactive) | > 100 µM (inactive) | > 100 µM (inactive) | > 100 µM (inactive) | 93.1 µM (inactive) | 34.8 µM (inactive) | 41.8 µM (inactive) | > 100 µM (inactive) |  |  |
| CCOC(=O)C1CN(C2CC2)CCC1=O (stereo not given) | > 100 µM (inactive) | > 100 µM (inactive) | > 100 µM (inactive) | > 100 µM (inactive) |  | > 100 µM (inactive) | > 100 µM (inactive) | > 100 µM (inactive) | > 100 µM (inactive) | > 100 µM (inactive) | > 100 µM (inactive) | > 100 µM (inactive) | > 100 µM (inactive) |  |  | > 100 µM (inactive) | > 100 µM (inactive) | > 100 µM (inactive) | > 100 µM (inactive) |
| CCC1CNC(=O)CC1CC(=O)OC (stereo not given) |  | > 100 µM (inactive) | > 100 µM (inactive) |  |  |  | > 100 µM (inactive) | > 100 µM (inactive) | > 100 µM (inactive) | > 100 µM (inactive) | > 100 µM (inactive) | > 100 µM (inactive) | > 100 µM (inactive) |  | > 100 µM (inactive) | > 100 µM (inactive) | > 100 µM (inactive) |  |  |
| CC(=O)Oc1cc(C)c(OC(C)=O)c2c1[C@H]1CC[C@]3(C)[C@@H](OC(C)=O)CC[C@H]3[C@@H]1CC2 | 15.8 µM (inactive) | > 10 µM (inactive) | 13.9 µM (inactive) | 16.6 µM (inactive) | 18.7 µM (inactive) | 19.5 µM (inactive) | 19.9 µM (inactive) | 18.4 µM (inactive) | 17.1 µM (inactive) | 17.5 µM (inactive) | 16.3 µM (inactive) |  | 15.8 µM (inactive) | 19.2 µM (inactive) | 16.9 µM (inactive) | 16.6 µM (inactive) | 15.3 µM (inactive) | 13.9 µM (inactive) |  |
| O=c1c2cccnc2[s+]([O-])n1Cc1ccccc1 (stereo not given) | > 100 µM (inactive) | > 100 µM (inactive) | > 100 µM (inactive) | > 100 µM (inactive) | > 100 µM (inactive) | > 100 µM (inactive) |  | > 100 µM (inactive) | > 100 µM (inactive) | > 100 µM (inactive) | > 100 µM (inactive) |  |  | > 100 µM (inactive) | > 100 µM (inactive) | > 100 µM (inactive) | > 100 µM (inactive) |  | > 100 µM (inactive) |
| CCCCNc1nc(N)nc(Nc2ccc(Br)cc2)c1N=O | > 100 µM (inactive) | > 100 µM (inactive) | 87.7 µM (inactive) | 96.8 µM (inactive) |  | 52 µM (inactive) | 37.2 µM (inactive) | > 100 µM (inactive) | > 100 µM (inactive) |  | > 100 µM (inactive) | > 100 µM (inactive) | 31.6 µM (inactive) | 80.2 µM (inactive) | 36.4 µM (inactive) | 84.9 µM (inactive) | > 100 µM (inactive) | 67.5 µM (inactive) |  |
| N/N=C(\C(=O)Nc1ccc([N+](=O)[O-])cc1)C(C1=Nc2cc([N+](=O)[O-])ccc2NC1)[N+](=O)[O-] (stereo not given) | > 100 µM (inactive) | > 100 µM (inactive) | > 100 µM (inactive) |  | > 100 µM (inactive) | > 100 µM (inactive) | > 100 µM (inactive) | 91.4 µM (inactive) | > 100 µM (inactive) | 79.4 µM (inactive) | > 100 µM (inactive) | > 100 µM (inactive) | 74.8 µM (inactive) | > 100 µM (inactive) | 25.3 µM (inactive) | 79.1 µM (inactive) | 32 µM (inactive) | > 100 µM (inactive) | 75.7 µM (inactive) |
| O=C1CSc2ccnc(=O)n21 | > 100 µM (inactive) |  | > 100 µM (inactive) | > 100 µM (inactive) | > 100 µM (inactive) | > 100 µM (inactive) | > 100 µM (inactive) | > 100 µM (inactive) | > 100 µM (inactive) | > 100 µM (inactive) | > 100 µM (inactive) |  |  | > 100 µM (inactive) | > 100 µM (inactive) | > 100 µM (inactive) |  | > 100 µM (inactive) |  |
| COc1nc2c(c(=O)[nH]1)N=C(c1ccccc1)CC(c1ccccc1)N2 (stereo not given) | > 100 µM (inactive) | 72.6 µM (inactive) | 54.5 µM (inactive) | 82 µM (inactive) | > 100 µM (inactive) | 27.2 µM (inactive) | 95.1 µM (inactive) | 35.7 µM (inactive) | 61.4 µM (inactive) | 91 µM (inactive) | 34.3 µM (inactive) | 29.6 µM (inactive) | 44.8 µM (inactive) | 48.1 µM (inactive) | 35.1 µM (inactive) | 33.8 µM (inactive) | 30.7 µM (inactive) | 57.9 µM (inactive) |  |
| C/C(=N/NC(=S)Nc1cccc(Cl)c1)c1ccccn1 | < 0.0208 µM (active) | 0.213 µM (active) | 1.82 µM (inactive) | 0.532 µM (active) | 1.5 µM (inactive) | 0.029 µM (active) | 0.453 µM (active) | 0.0324 µM (active) | 0.0395 µM (active) | 0.348 µM (active) | 0.242 µM (active) | 1.2 µM (inactive) | 0.125 µM (active) | 0.593 µM (active) | 0.06 µM (active) | < 0.0161 µM (active) | 0.413 µM (active) | 0.0255 µM (active) |  |
| CCOC(=O)c1c(NCc2ccccc2)n(-c2ccccc2)c(=S)n(-c2ccccc2)c1=O | > 100 µM (inactive) | > 100 µM (inactive) | > 100 µM (inactive) | > 100 µM (inactive) |  | 35.6 µM (inactive) |  | > 100 µM (inactive) | > 100 µM (inactive) |  | > 100 µM (inactive) | > 100 µM (inactive) | > 100 µM (inactive) |  | 57.8 µM (inactive) |  | > 100 µM (inactive) |  | 66.4 µM (inactive) |
| Cc1ccc(CCCC(=O)O)cc1C | > 100 µM (inactive) | > 100 µM (inactive) |  | > 100 µM (inactive) |  | > 100 µM (inactive) | > 100 µM (inactive) | > 100 µM (inactive) | > 100 µM (inactive) | > 100 µM (inactive) | > 100 µM (inactive) | > 100 µM (inactive) | > 100 µM (inactive) |  | > 100 µM (inactive) | > 100 µM (inactive) | > 100 µM (inactive) | > 100 µM (inactive) |  |
| Cc1cccc(Nc2cn(CCOc3ccccc3)c(=O)n(CCOc3ccccc3)c2=O)c1 | > 100 µM (inactive) |  | > 100 µM (inactive) | > 100 µM (inactive) | > 100 µM (inactive) | 67.5 µM (inactive) | > 100 µM (inactive) | > 100 µM (inactive) | 23.3 µM (inactive) | > 100 µM (inactive) | > 100 µM (inactive) |  | > 100 µM (inactive) |  |  | > 100 µM (inactive) | > 100 µM (inactive) | > 100 µM (inactive) |  |
| S=C(NN=C1NCCCN1)Nc1ccccc1 | > 100 µM (inactive) | > 100 µM (inactive) | > 100 µM (inactive) |  | > 100 µM (inactive) | 28.2 µM (inactive) | > 100 µM (inactive) | > 100 µM (inactive) | > 100 µM (inactive) | > 100 µM (inactive) |  | > 100 µM (inactive) | > 100 µM (inactive) | > 100 µM (inactive) | 60.4 µM (inactive) | > 100 µM (inactive) | > 100 µM (inactive) | > 100 µM (inactive) | > 100 µM (inactive) |
| CC(C)=CCC/C(C)=C/COC(C)(C)C1=CCC(C)CC1.CC(C)=CCC/C(C)=C/COC1CC(C)CCC1=C(C)C (stereo not given) | 63.8 µM (inactive) |  | > 100 µM (inactive) | > 100 µM (inactive) | > 100 µM (inactive) | 36.7 µM (inactive) | > 100 µM (inactive) | > 100 µM (inactive) | > 100 µM (inactive) | > 100 µM (inactive) | > 100 µM (inactive) |  |  | 6.07 µM (inactive) | > 100 µM (inactive) | > 100 µM (inactive) | > 100 µM (inactive) | > 100 µM (inactive) |  |
